Test [1] concerns the target T1, Bromodomain-containing protein 4 (Homo sapiens, UniProt O60885). The test is described as follows: Binding affinity to BRD4 BD2 (unknown origin) expressed in Escherichia coli BL21 (DE3) at 1:1 protein:compound ratio by MST assay.
The target in test [2] is T1, Bromodomain-containing protein 4. The test is described as follows: Binding affinity to BRD4 BD1 (unknown origin) expressed in Escherichia coli BL21 (DE3) at 1:1 protein:compound ratio by MST assay.
Test [3] can be described thus: Selectivity ratio of Kd for binding affinity to BRD4 BD2 (unknown origin) by MST assay to Kd for binding affinity to BRD4 BD1 (unknown origin) by MST assay.
For test [4], the system named is Mus musculus. The test is described as follows: Anti-inflammatory activity in complete Freund's adjuvant/MOG (35 to 55 residues)/pertussis toxin-induced experimental autoimmune encephalomyelitis C57BL/6 mouse model assessed as reduction in IL-6 level at 30 mg/kg, ip bid administered 6 days post immunization and measured every 3 days for 28 days post immunization. Type of test: functional, organism-based. The settings on record: time 22.0 day.

In the next test the test system is Microglia. The test is described as follows: Antiinflammatory activity against LPS induced neonatal rat cerebral cortex microglia by immunofluorescence assay. The test is classed as functional, cell-based.
Test [5] concerns Mus musculus. Description: Anti-inflammatory activity in complete Freund's adjuvant/MOG (35 to 55 residues)/pertussis toxin-induced experimental autoimmune encephalomyelitis C57BL/6 mouse model assessed as appearance of normal myelin structure at 30 mg/kg, ip bid administered 6 days post immunization and measured every 3 days for 28 days post immunization by Luxol fast blue staining based bright field fluorescence microscopic analysis. Type of test: functional, organism-based. The settings on record: time 22.0 day.

Test [6] relates to Mus musculus. Description: Anti-inflammatory activity in complete Freund's adjuvant/MOG (35 to 55 residues)/pertussis toxin-induced experimental autoimmune encephalomyelitis C57BL/6 mouse model assessed as reduction in clinical scores at 30 mg/kg, ip bid administered 6 days post immunization and measured every 3 days for 28 days post immunization. The conditions noted are these: time 22.0 day. The test is classed as functional, organism-based.

The subject of test [7] is Mus musculus. Description: Anti-inflammatory activity in complete Freund's adjuvant/MOG (35 to 55 residues)/pertussis toxin-induced experimental autoimmune encephalomyelitis C57BL/6 mouse model assessed as reduction in TNF-alpha level at 30 mg/kg, ip bid administered 6 days post immunization and measured every 3 days for 28 days post immunization. The test is classed as functional, organism-based. The settings on record: time 22.0 day.

Test [8] deals with Mus musculus. Description: Anti-inflammatory activity in complete Freund's adjuvant/MOG (35 to 55 residues)/pertussis toxin-induced experimental autoimmune encephalomyelitis C57BL/6 mouse model assessed as myelin density at 60 mg/kg, ip bid administered 6 days post immunization and measured every 3 days for 28 days post immunization by Luxol fast blue staining based bright field fluorescence microscopic analysis. The test is classed as functional, organism-based. The conditions noted are these: time 22.0 day.

The subject of test [9] is Mus musculus. The test is described as follows: Anti-inflammatory activity in complete Freund's adjuvant/MOG (35 to 55 residues)/pertussis toxin-induced experimental autoimmune encephalomyelitis C57BL/6 mouse model assessed as change in cumulative scores at 30 mg/kg, ip bid administered 6 days post immunization and measured every 3 days for 28 days post immunization. The test is classed as functional, organism-based. The settings on record: time 22.0 day.

Calls of active or inactive are those of the source. No cut-off for these calls is given here.

Usually Kd stands for the concentration at which binding is half-saturated. On to `Cc1nn(CC2CCCCC2)c(C)c1-c1cncc(-c2ccnc3nc[nH]c23)c1`, for which the Kd in [1] worked out at 9300 nM; in test [2] it was 300 nM. The Selectivity ratio in test [3] came to 30.
For `Cc1nn(C)c(C)c1-c1cncc(-c2ccnc3nc[nH]c23)c1`, the figures for the Kd in test [1] and in test [2] were 30000 nM and 620 nM, respectively. Also, in test [3], the Selectivity ratio was determined as 48.
As to `Cc1nn(C)cc1-c1cncc(-c2ccnc3nc[nH]c23)c1`, the Kd is 28000 nM in test [1] and 660 nM in test [2]. Also, in test [3], the Selectivity ratio turned out to be 42.
Take `Cc1c(-c2cncc(-c3ccnc4nc[nH]c34)c2)cnn1C`: the Kd in [1] is 31000 nM; in test [2], 690 nM. Besides, the Selectivity ratio in test [3] is 46.
Consider `CCn1nc(C)c(-c2cncc(-c3ccnc4nc[nH]c34)c2)c1C`, for which the Kd in [1] stood at 16000 nM; in test [2], 480 nM. Further, in [3], the Selectivity ratio was determined as 34.
`COC(=O)/C=C/C(=O)OC`: the outcome in the test on Mus musculus [4], in the test with Microglia, in the test with Mus musculus [5], in the test with Mus musculus [6], in the test with Mus musculus [7] and with Mus musculus [8] was Active. Also, the outcome in the test with Mus musculus [9] was Active.
Turning to `Cc1nn(C)c(C)c1-c1cc2c(c(-c3ccnc4nc[nH]c34)c1)OCC2`, the figures for the Kd in [1] and in test [2] were 3100 nM and 180 nM, respectively. Also, the Selectivity ratio in test [3] was 17.
On the same counts, the results for `Cc1c(-c2cnccc2-c2ccnc3nc[nH]c23)cnn1C` are 178000 nM, 2400 nM and 73.
`Cn1cc(-c2cncc(-c3ccnc4nc[nH]c34)c2)c(C(F)(F)F)n1`: the Kd in [1] amounted to 11000 nM; in test [2], 330 nM. Besides, in test [3], the Selectivity ratio amounted to 35.
On to `Cc1nn(CC2CCC2)c(C)c1-c1cncc(-c2ccnc3nc[nH]c23)c1`, for which the Kd in [1] worked out at 13000 nM; in [2] it was 250 nM. In addition, the Selectivity ratio in test [3] was 51.
Consider `Cc1nn(CC2CCCC2)c(C)c1-c1cncc(-c2ccnc3nc[nH]c23)c1`, for which the Kd came out at 13000 nM in [1] and 990 nM in test [2]. The Selectivity ratio in [3] was determined as 13.

Values taken from ChEMBL document CHEMBL5528022, “Discovery of a brain-permeable bromodomain and extra terminal domain (BET) inhibitor with selectivity for BD1 for the treatment of multiple sclerosis” (Eur J Med Chem, 2024).
